# Test results reported in patent publication US3974140A, “Ureidoacetamido-penicillins” (Bayer Aktiengesellschaft, priority 1970, dated 1976).
# Several values for one entry are separate records, joined by “and”; a condition that tells them apart may be missing. Equal entries are not always repeated.
# Tests used:
# Experiment in all cases: MIC, liquid medium test tube series dilution test
# [1] = test system: Psdm. aerug. Bonn; assay type: cell-based, Pseudomonas aerug.; details: 24 hours, 37°C
# Method: (§1) The chemotherapeutic activity of the new penicillins was tested in vivo and in vitro. The in vitro inhibition values (MIC = minimum inhibition concentration (see Tables 1 and 2) were determined in a liquid medium in the test tube series dilution test, with readings being taken after 24 hours' incubation at 37°C. The MIC is indicated by the non-turbid test tube in the dilution series. A complete medium of the following composition was used as the nutrient medium:
# (§2) The figures quoted in the Examples for the effectiveness against certain bacteria (units/ml) are minimum inhibitory concentrations in the test tube series dilution test after 24 hours' incubation.
# [2] = test system: Psdm. aerug. Walter; assay type: cell-based, Pseudomonas aerug.; details: 24 hours, 37°C
# Method: as §1, §2
# [3] = test system: Proteus vulg. 3400; assay type: cell-based, Proteus vulgaris; details: Proteus vulg. 3400, 24 hours, 37°C
# Method: as §1, §2
# [4] = test system: Proteus vulg. 1017; assay type: cell-based, Proteus vulgaris; details: Proteus vulg. 1017, 24 hours, 37°C
# Method: as §1, §2
# [5] = test system: E. coli C 165; assay type: cell-based; details: E. coli C 165, 24 hours, 37°C
# Method: as §1, §2
# [6] = test system: Klebsiella K 10; assay type: cell-based; details: Klebsiella K 10, 24 hours, 37°C
# Method: as §1, §2
# [7] = test system: E. coli 14; assay type: cell-based; details: E. coli 14, 24 hours, 37°C
# Method: as §1, §2
# [8] = test system: E. coli A 261; assay type: cell-based; details: E. coli A 261, 24 hours, 37°C
# Method: as §1, §2
# [9] = test system: Streptoc. faec. ATCC 9790; assay type: cell-based; details: Strep. faec. (Enterococcus) ATCC 9790, 24 hours, 37°C
# Method: as §1, §2
# [10] = test system: Klebsiella 63; assay type: cell-based; details: Klebsiella 63, 24 hours, 37°C
# Method: as §1, §2
# [11] = test system: E. coli 183/58; assay type: cell-based; details: E. coli 183/58, 24 hours, 37°C
# Method: as §1, §2
# [12] = test system: Staph. aureus 133; assay type: cell-based, Staphylococcus aureus; details: Staph. aureus 133, 24 hours, 37°C
# Method: as §1, §2
MIC [1],MIC [2],MIC [3],MIC [4],MIC [5],MIC [6],MIC [7],MIC [8] [units/ml],MIC [9],MIC [10],MIC [11],MIC [12],Compound
approx. 500 units/ml,100-500 units/ml,100-500 units/ml,100-500 units/ml,100-500 units/ml,100-500 units/ml,20-100 units/ml,> 500,> 500 units/ml,100-500 units/ml,20-100 units/ml,0.8-4 units/ml,"CN(C(=O)NC(C(=O)N[C@@H]1C(=O)N2[C@@H]1SC(C)(C)[C@@H]2C(=O)O)c1c(Cl)cccc1Cl)C(=O)c1ccccc1 (stereo partly drawn) [Example 31, Sodium α-(3-benzoyl-3-methyl-ureido)-2,6-dichlorobenzyl-penicillin]"
12.5 units/ml,12.5 units/ml,6.25 units/ml,3.1 units/ml,3.1 units/ml,12.5 units/ml,0.8 units/ml,50,12.5 units/ml,25 units/ml,1.6 units/ml,< 0.8 units/ml,"CN(C(=O)N[C@@H](C(=O)N[C@@H]1C(=O)N2[C@@H]1SC(C)(C)[C@@H]2C(=O)O)c1ccccc1)C(=O)c1ccccc1[N+](=O)[O-] [Example 140, Sodium D(-)-α-(3-o-nitrobenzoyl-3-methyl-ureido)-benzylpenicillin]"
20-100 units/ml,20-100 units/ml,20-100 units/ml,20-100 units/ml,4-20 units/ml,20-100 units/ml,0.8-4 units/ml,> 500,100-500 units/ml,20-100 units/ml,4-20 units/ml,< 0.8 units/ml,Cc1noc(C)c1C(=O)N(C)C(=O)N[C@@H](C(=O)N[C@@H]1C(=O)N2[C@@H]1SC(C)(C)[C@@H]2C(=O)O)c1ccccc1 [Example 38]
12.5 units/ml,100 units/ml,12.5 units/ml,12.5 units/ml,6.25 units/ml,25 units/ml,3.12 units/ml,200,100 units/ml,12.5 units/ml,3.12 units/ml,< 0.78 units/ml,"Cc1ccc(C(=O)N(C)C(=O)N[C@@H](C(=O)N[C@@H]2C(=O)N3[C@@H]2SC(C)(C)[C@@H]3C(=O)O)c2ccccc2)cc1[N+](=O)[O-] [Example 70, Sodium D(-)-α-(3-[m-nitro-p-methyl]-benzoyl-3-methyl-ureido)-benzylpenicillin]"
100-500 units/ml,100-500 units/ml,100-500 units/ml,approx. 100 units/ml,20-100 units/ml,100-500 units/ml,approx. 20 units/ml,> 500,100-500 units/ml,approx. 100 units/ml,20-100 units/ml,~0.8 units/ml,"CN(C(=O)NC(C(=O)N[C@@H]1C(=O)N2[C@@H]1SC(C)(C)[C@@H]2C(=O)O)c1c(Cl)cccc1Cl)C(=O)c1ccccc1 (stereo partly drawn) [Example 32, Sodium α-(3-benzoyl-3-methyl-ureido)-2,6-dichlorobenzyl-penicillin]"
100-500 units/ml,100-500 units/ml,~ 100 units/ml,100-500 units/ml,20-100 units/ml,20-100 units/ml,4-20 units/ml,> 500,100-500 units/ml,20-100 units/ml,20-100 units/ml,0.8-4 units/ml,"C=CCN(C(=O)NC(C(=O)N[C@@H]1C(=O)N2[C@@H]1SC(C)(C)[C@@H]2C(=O)O)c1ccc(OC)cc1)C(=O)c1ccccc1 (stereo partly drawn) [Example 14, Sodium D,L-α-(3-benzoyl-3-allyl-ureido)-4-methoxybenzylpenicillin]"
> 500 units/ml,> 500 units/ml,> 500 units/ml,> 500 units/ml,100-500 units/ml,> 500 units/ml,20-100 units/ml,> 500,> 500 units/ml,> 500 units/ml,100-500 units/ml,0.8-4 units/ml,"C=CCN(C(=O)NC(C(=O)N[C@@H]1C(=O)N2[C@@H]1SC(C)(C)[C@@H]2C(=O)O)c1c(Cl)cccc1Cl)C(=O)c1ccccc1 (stereo partly drawn) [Example 15, Sodium D,L-α-(3-benzoyl-3-allyl-ureido)-2,6-dichlorobenzylpenicillin]"
> 500 units/ml,> 500 units/ml,> 500 units/ml,> 500 units/ml,100-500 units/ml,> 500 units/ml,20-100 units/ml,> 500,~ 500 units/ml,> 500 units/ml,100-500 units/ml,0.8-4 units/ml,"COC(=O)N(C)C(=O)NC(C(=O)N[C@@H]1C(=O)N2[C@@H]1SC(C)(C)[C@@H]2C(=O)O)c1c(Cl)cccc1Cl (stereo partly drawn) [Example 9, Sodium D,L-α-(3-methoxycarbonyl-3-methyl-ureido)-2,6-dichlorobenzylpenicillin]"
200 units/ml,200 units/ml,400 units/ml,200 units/ml,100 units/ml,25 units/ml,12.5 units/ml,> 400,50 units/ml,50 units/ml,100 units/ml,< 0.8 units/ml,"CC(=O)N(C(=O)N[C@@H](C(=O)N[C@@H]1C(=O)N2[C@@H]1SC(C)(C)[C@@H]2C(=O)O)c1ccccc1)c1ccccc1 [Example 130, Sodium D(-)-α-(3-acetyl-3-phenyl-ureido)-benzylpenicillin]"
12.5 units/ml,100 units/ml,25 units/ml,12.5 units/ml,6.25 units/ml,50 units/ml,1.56 units/ml,400,100 units/ml,12.5 units/ml and 25 units/ml,3.12 units/ml,< 0.78 units/ml,"CN(C(=O)CCC(F)(F)F)C(=O)N[C@@H](C(=O)N[C@@H]1C(=O)N2[C@@H]1SC(C)(C)[C@@H]2C(=O)O)c1ccccc1 [Example 69, Sodium D(-)-α-(3-γ-trifluorobutyryl-3-methyl-ureido)-benzylpenicillin]"
200 units/ml,200 units/ml,400 units/ml,200 units/ml,50 units/ml,50 units/ml,12.5 units/ml,> 400,100 units/ml,100 units/ml,50 units/ml,< 0.8 units/ml,"CCC(=O)N(C(=O)N[C@@H](C(=O)N[C@@H]1C(=O)N2[C@@H]1SC(C)(C)[C@@H]2C(=O)O)c1ccccc1)c1ccccc1 [Example 143, Sodium D(-)-α-(3-propionyl-3-phenyl-ureido)-benzylpenicillin]"
100-500 units/ml,100-500 units/ml,100-500 units/ml,100-500 units/ml,20-100 units/ml,20-100 units/ml,4-20 units/ml,> 500,~ 100 units/ml,20-100 units/ml,20-100 units/ml,0.8-4 units/ml,"COC(=O)N(C)C(=O)NC(C(=O)N[C@@H]1C(=O)N2[C@@H]1SC(C)(C)[C@@H]2C(=O)O)c1ccc(OC)cc1 (stereo partly drawn) [Example 18, Sodium D,L-α-(3-methoxycarbonyl-3-methyl-ureido)-4-methoxybenzylpenicillin]"
25 units/ml,12.5 units/ml,12.5 units/ml,3.1 units/ml,3.1 units/ml,12.5 units/ml,0.8 units/ml,50,25 units/ml,25 units/ml,1.6 units/ml,< 0.8 units/ml,"CN(C(=O)N[C@@H](C(=O)N[C@@H]1C(=O)N2[C@@H]1SC(C)(C)[C@@H]2C(=O)O)c1ccccc1)C(=O)c1ccc(Cl)cc1Cl [Example 142, Sodium D(-)-α-(3-[2,4-dichlorobenzoyl]-3-methyl-ureido)-benzylpenicillin]"
